{"source": "ChEMBL document CHEMBL1156070", "about": "“Functional and biochemical analysis of a key series of ramoplanin analogues” (Bioorg Med Chem Lett, 2009)", "key": {"[1]": {"test": "Binding affinity to synthetic lipid 2 analogue fl-LPII"}, "Escherichia coli": {"tested_on": "Escherichia coli", "test": "Inhibition of Escherichia coli PBP1b-mediated lipid 2 incorporation into peptidoglycon at 6 uM"}, "Staphylococcus aureus": {"tested_on": "Staphylococcus aureus", "test": "Antibacterial activity against Staphylococcus aureus ATCC 29213 after 24 hrs by microdilution assay", "type": "functional", "conditions": "ATCC 29213, 24 h"}}, "note": "The source made the active and inactive calls. The calls are words filed in the database; no cut-off is given here.", "data": [{"compound": "CC(C)C/C=C/C=C/C(=O)N[C@@H](CC(N)=O)C(=O)N[C@H]1CNC(=O)[C@H](c2ccc(O)c(Cl)c2)NC(=O)[C@@H](C)NC(=O)[C@H](CC(C)C)NC(=O)CNC(=O)[C@H](c2ccc(O)cc2)NC(=O)[C@@H]([C@@H](C)O)NC(=O)[C@H](c2ccc(O)cc2)NC(=O)[C@@H](CCCN)NC(=O)[C@H](Cc2ccccc2)NC(=O)[C@H]([C@H](C)O)NC(=O)[C@@H](c2ccc(O)cc2)NC(=O)[C@H](c2ccc(O)cc2)NC(=O)[C@@H]([C@@H](C)O)NC(=O)[C@@H](CCCN)NC(=O)[C@@H](c2ccc(O)cc2)NC1=O", "values": [{"measurement": "Kd", "setting": "[1]", "result": 0.033, "unit": "µM"}, {"measurement": "inhibition", "setting": "Escherichia coli", "result": "Active"}, {"measurement": "MIC", "setting": "Staphylococcus aureus", "result": 0.4, "unit": "µg/mL"}]}, {"compound": "CC(C)C/C=C/C=C/C(=O)N[C@@H](CC(N)=O)C(=O)N[C@H]1CNC(=O)[C@H](c2ccc(O)c(Cl)c2)NC(=O)[C@@H](C)NC(=O)[C@H](CC(C)C)NC(=O)CNC(=O)[C@H](c2ccc(O)cc2)NC(=O)[C@H](C)NC(=O)[C@H](c2ccc(O)cc2)NC(=O)[C@@H](CCCN)NC(=O)[C@H](Cc2ccccc2)NC(=O)[C@H]([C@H](C)O)NC(=O)[C@@H](c2ccc(O)cc2)NC(=O)[C@H](c2ccc(O)cc2)NC(=O)[C@@H]([C@@H](C)O)NC(=O)[C@@H](CCCN)NC(=O)[C@@H](c2ccc(O)cc2)NC1=O", "values": [{"measurement": "Kd", "setting": "[1]", "result": 5.4, "unit": "µM"}, {"measurement": "inhibition", "setting": "Escherichia coli", "result": "inactive"}, {"measurement": "MIC", "setting": "Staphylococcus aureus", "result": 33, "unit": "µg/mL"}]}, {"compound": "CC(C)C/C=C/C=C/C(=O)N[C@@H](CC(N)=O)C(=O)N[C@H]1CNC(=O)[C@H](c2ccc(O)c(Cl)c2)NC(=O)[C@@H](C)NC(=O)[C@H](CC(C)C)NC(=O)CNC(=O)[C@H](c2ccc(O)cc2)NC(=O)[C@@H]([C@@H](C)O)NC(=O)[C@H](c2ccc(O)cc2)NC(=O)[C@@H](CCCN)NC(=O)[C@H](Cc2ccccc2)NC(=O)[C@H](C)NC(=O)[C@@H](c2ccc(O)cc2)NC(=O)[C@H](c2ccc(O)cc2)NC(=O)[C@@H]([C@@H](C)O)NC(=O)[C@@H](CCCN)NC(=O)[C@@H](c2ccc(O)cc2)NC1=O", "values": [{"measurement": "Kd", "setting": "[1]", "result": 8.7, "unit": "µM"}, {"measurement": "inhibition", "setting": "Escherichia coli", "result": "inactive"}, {"measurement": "MIC", "setting": "Staphylococcus aureus", "result": 38, "unit": "µg/mL"}]}, {"compound": "CC(C)C/C=C/C=C/C(=O)N[C@@H](CC(N)=O)C(=O)N[C@H]1CNC(=O)[C@H](c2ccc(O)c(Cl)c2)NC(=O)[C@@H](C)NC(=O)[C@H](CC(C)C)NC(=O)CNC(=O)[C@H](c2ccc(O)cc2)NC(=O)[C@@H]([C@@H](C)O)NC(=O)[C@H](c2ccc(O)cc2)NC(=O)[C@@H](CCCN)NC(=O)[C@H](Cc2ccccc2)NC(=O)[C@H]([C@H](C)O)NC(=O)[C@@H](c2ccc(O)cc2)NC(=O)[C@H](c2ccc(O)cc2)NC(=O)[C@@H](C)NC(=O)[C@@H](CCCN)NC(=O)[C@@H](c2ccc(O)cc2)NC1=O", "values": [{"measurement": "Kd", "setting": "[1]", "result": 0.447, "unit": "µM"}, {"measurement": "inhibition", "setting": "Escherichia coli", "result": "Active"}, {"measurement": "MIC", "setting": "Staphylococcus aureus", "result": 2.4, "unit": "µg/mL"}]}, {"compound": "CC(C)C/C=C/C=C/C(=O)N[C@@H](CC(N)=O)C(=O)N[C@H]1CNC(=O)[C@H](c2ccc(O)c(Cl)c2)NC(=O)[C@@H](C)NC(=O)[C@H](CC(C)C)NC(=O)CNC(=O)[C@H](c2ccc(O)cc2)NC(=O)[C@@H]([C@@H](C)O)NC(=O)[C@H](C)NC(=O)[C@@H](CCCN)NC(=O)[C@H](Cc2ccccc2)NC(=O)[C@H]([C@H](C)O)NC(=O)[C@@H](c2ccc(O)cc2)NC(=O)[C@H](c2ccc(O)cc2)NC(=O)[C@@H]([C@@H](C)O)NC(=O)[C@@H](CCCN)NC(=O)[C@@H](c2ccc(O)cc2)NC1=O", "values": [{"measurement": "Kd", "setting": "[1]", "result": 6.3, "unit": "µM"}, {"measurement": "inhibition", "setting": "Escherichia coli", "result": "inactive"}, {"measurement": "MIC", "setting": "Staphylococcus aureus", "result": 6.3, "unit": "µg/mL"}]}, {"compound": "CC(C)C/C=C/C=C/C(=O)N[C@@H](CC(N)=O)C(=O)N[C@H]1CNC(=O)[C@H](c2ccc(O)c(Cl)c2)NC(=O)[C@@H](C)NC(=O)[C@H](CC(C)C)NC(=O)CNC(=O)[C@H](c2ccc(O)cc2)NC(=O)[C@@H]([C@@H](C)O)NC(=O)[C@H](c2ccc(O)cc2)NC(=O)[C@@H](CCCN)NC(=O)[C@H](Cc2ccccc2)NC(=O)[C@H]([C@H](C)O)NC(=O)[C@@H](c2ccc(O)cc2)NC(=O)[C@H](c2ccc(O)cc2)NC(=O)[C@@H]([C@@H](C)O)NC(=O)[C@@H](CCCN)NC(=O)[C@H](C)NC1=O", "values": [{"measurement": "inhibition", "setting": "Escherichia coli", "result": "Active"}, {"measurement": "MIC", "setting": "Staphylococcus aureus", "result": 13, "unit": "µg/mL"}]}, {"compound": "CC(C)C/C=C/C=C/C(=O)N[C@@H](CC(N)=O)C(=O)N[C@H]1CNC(=O)[C@H](c2ccc(O)c(Cl)c2)NC(=O)[C@@H](C)NC(=O)[C@H](CC(C)C)NC(=O)CNC(=O)[C@H](c2ccc(O)cc2)NC(=O)[C@@H]([C@@H](C)O)NC(=O)[C@H](c2ccc(O)cc2)NC(=O)[C@@H](CCCN)NC(=O)[C@H](Cc2ccccc2)NC(=O)[C@H]([C@H](C)O)NC(=O)[C@@H](c2ccc(O)cc2)NC(=O)[C@H](C)NC(=O)[C@@H]([C@@H](C)O)NC(=O)[C@@H](CCCN)NC(=O)[C@@H](c2ccc(O)cc2)NC1=O", "values": [{"measurement": "Kd", "setting": "[1]", "result": 0.378, "unit": "µM"}, {"measurement": "inhibition", "setting": "Escherichia coli", "result": "Active"}, {"measurement": "MIC", "setting": "Staphylococcus aureus", "result": 1.6, "unit": "µg/mL"}]}, {"compound": "CC(C)C/C=C/C=C/C(=O)N[C@@H](CC(N)=O)C(=O)N[C@H]1CNC(=O)[C@H](c2ccc(O)c(Cl)c2)NC(=O)[C@@H](C)NC(=O)[C@H](CC(C)C)NC(=O)CNC(=O)[C@H](c2ccc(O)cc2)NC(=O)[C@@H]([C@@H](C)O)NC(=O)[C@H](c2ccc(O)cc2)NC(=O)[C@@H](CCCN)NC(=O)[C@H](Cc2ccccc2)NC(=O)[C@H]([C@H](C)O)NC(=O)[C@@H](c2ccc(O)cc2)NC(=O)[C@H](c2ccc(O)cc2)NC(=O)[C@@H]([C@@H](C)O)NC(=O)[C@H](C)NC(=O)[C@@H](c2ccc(O)cc2)NC1=O", "values": [{"measurement": "Kd", "setting": "[1]", "result": 4.3, "unit": "µM"}, {"measurement": "inhibition", "setting": "Escherichia coli", "result": "inactive"}, {"measurement": "MIC", "setting": "Staphylococcus aureus", "result": 31, "unit": "µg/mL"}]}, {"compound": "CC(C)C/C=C/C=C/C(=O)N[C@@H](CC(N)=O)C(=O)N[C@H]1CNC(=O)[C@H](c2ccc(O)c(Cl)c2)NC(=O)[C@@H](C)NC(=O)[C@H](CC(C)C)NC(=O)CNC(=O)[C@H](c2ccc(O)cc2)NC(=O)[C@@H]([C@@H](C)O)NC(=O)[C@H](c2ccc(O)cc2)NC(=O)[C@@H](CCCN)NC(=O)C(C)NC(=O)[C@H]([C@H](C)O)NC(=O)[C@@H](c2ccc(O)cc2)NC(=O)[C@H](c2ccc(O)cc2)NC(=O)[C@@H]([C@@H](C)O)NC(=O)[C@@H](CCCN)NC(=O)[C@@H](c2ccc(O)cc2)NC1=O", "note": "(single isomer, unassigned)", "values": [{"measurement": "Kd", "setting": "[1]", "result": 0.383, "unit": "µM"}, {"measurement": "inhibition", "setting": "Escherichia coli", "result": "Active"}, {"measurement": "MIC", "setting": "Staphylococcus aureus", "result": 1.6, "unit": "µg/mL"}]}, {"compound": "CC(C)C/C=C/C=C/C(=O)N[C@@H](CC(N)=O)C(=O)N[C@H]1CNC(=O)[C@H](c2ccc(O)c(Cl)c2)NC(=O)[C@@H](C)NC(=O)[C@H](CC(C)C)NC(=O)CNC(=O)[C@H](c2ccc(O)cc2)NC(=O)[C@@H]([C@@H](C)O)NC(=O)[C@H](c2ccc(O)cc2)NC(=O)[C@@H](CCCN)NC(=O)[C@H](Cc2ccccc2)NC(=O)[C@H]([C@H](C)O)NC(=O)[C@H](C)NC(=O)[C@H](c2ccc(O)cc2)NC(=O)[C@@H]([C@@H](C)O)NC(=O)[C@@H](CCCN)NC(=O)[C@@H](c2ccc(O)cc2)NC1=O", "values": [{"measurement": "Kd", "setting": "[1]", "result": 1.2, "unit": "µM"}, {"measurement": "inhibition", "setting": "Escherichia coli", "result": "inactive"}, {"measurement": "MIC", "setting": "Staphylococcus aureus", "result": 13, "unit": "µg/mL"}]}, {"compound": "CC(C)C/C=C/C=C/C(=O)N[C@@H](CC(N)=O)C(=O)N[C@H]1CNC(=O)[C@H](c2ccc(O)c(Cl)c2)NC(=O)[C@@H](C)NC(=O)[C@H](CC(C)C)NC(=O)CNC(=O)[C@H](c2ccc(O)cc2)NC(=O)[C@@H]([C@@H](C)O)NC(=O)[C@H](c2ccc(O)cc2)NC(=O)C(C)NC(=O)[C@H](Cc2ccccc2)NC(=O)[C@H]([C@H](C)O)NC(=O)[C@@H](c2ccc(O)cc2)NC(=O)[C@H](c2ccc(O)cc2)NC(=O)[C@@H]([C@@H](C)O)NC(=O)[C@@H](CCCN)NC(=O)[C@@H](c2ccc(O)cc2)NC1=O", "note": "(single isomer, unassigned)", "values": [{"measurement": "Kd", "setting": "[1]", "result": 6.5, "unit": "µM"}, {"measurement": "inhibition", "setting": "Escherichia coli", "result": "inactive"}, {"measurement": "MIC", "setting": "Staphylococcus aureus", "result": "> 50", "unit": "µg/mL"}]}, {"compound": "CC(C)C/C=C/C=C/C(=O)N[C@@H](CC(N)=O)C(=O)N[C@@H]1C(=O)N[C@H](c2ccc(O)cc2)C(=O)N[C@H](CCCN)C(=O)N[C@H]([C@@H](C)O)C(=O)N[C@@H](c2ccc(O)cc2)C(=O)N[C@H](c2ccc(O)cc2)C(=O)N[C@@H]([C@H](C)O)C(=O)N[C@@H](Cc2ccccc2)C(=O)N[C@H](CCCN)C(=O)N[C@@H](c2ccc(O)cc2)C(=O)N[C@H]([C@@H](C)O)C(=O)N[C@@H](c2ccc(O)cc2)C(=O)NCC(=O)N[C@@H](CC(C)C)C(=O)N[C@H](C)C(=O)N[C@@H](c2ccc(O)c(Cl)c2)C(=O)O[C@@H]1C(N)=O", "note": "[RAMOPLANIN AGLYCON]", "values": [{"measurement": "Kd", "setting": "[1]", "result": 0.04, "unit": "µM"}, {"measurement": "inhibition", "setting": "Escherichia coli", "result": "Active"}, {"measurement": "MIC", "setting": "Staphylococcus aureus", "result": 0.4, "unit": "µg/mL"}]}]}
